# Values of other authors as cited in PubChem BioAssay AID1259409 (Chemical Carcinogenesis Research Information System (CCRIS), 2018).
# Test system: rodent chemically induced tumor inhibition, incidence and multiplicity
# Assay: CCRIS tumor inhibitor studies
Compound,"tumour outcome (control, treated, inhibition, significance) (Carcinogen: AZOXYMETHANE, 25843-45-2, Dose [Inhibitor]: 0, 2.5 G/L IN DRINKING WATER AD LIBITUM FOR DURATION OF STUDY (STUDY DURATION: 40 WK), Route [Inhibitor]: ORAL, Species: RAT, Strain/Sex: WISTAR/MALE, Target Tissue: Type of Lesion: INTESTINE: TUMOR, Dose [Carcinogen]: 7.4 MG/KG BW IN 0.9% SALINE 1/WK FOR 10 WK, Promoter: BOMBESIN, 31362-50-2)","tumour outcome (control, treated, inhibition, significance) (Carcinogen: AZOXYMETHANE, 25843-45-2, Dose [Inhibitor]: 0, 2.5 G/L IN DRINKING WATER FOR DURATION OF STUDY (STUDY DURATION: 45 WK), Route [Inhibitor]: ORAL, Species: RAT, Strain/Sex: WISTAR/MALE, Target Tissue: Type of Lesion: COLON: TUMOR, Dose [Carcinogen]: 7.4 MG/KG BW IN 0.9% SALINE 1/WK FOR 10 WK, Promoter: VASOACTIVE INTESTINAL PEPTIDE, 37221-79-7)","tumour outcome (control, treated, inhibition, significance) (Carcinogen: N-BUTYL-N-(4-HYDROXYBUTYL)NITROSAMINE [3817-11-6], Dose [Inhibitor]: 2 G/L IN DRINKING WATER FOR 32 WK BEGINNING 2 D POST LAST CARCINOGEN DOSE (STUDY DURATION: 36 WK), Route [Inhibitor]: ORAL, Species: RAT, Strain/Sex: F344/MALE, Target Tissue: Type of Lesion: URINARY BLADDER: CARCINOMA, Dose [Carcinogen]: 0.05% IN DRINKING WATER FOR 4 WK (STUDY DURATION: 36 WK), Promoter: NONE)","tumour outcome (control, treated, inhibition, significance) (Carcinogen: N-BUTYL-N-(4-HYDROXYBUTYL)NITROSAMINE [3817-11-6], Dose [Inhibitor]: 2 G/L IN DRINKING WATER FOR 32 WK BEGINNING 2 D POST LAST CARCINOGEN DOSE (STUDY DURATION: 36 WK), Route [Inhibitor]: ORAL, Species: RAT, Strain/Sex: F344/MALE, Target Tissue: Type of Lesion: URINARY BLADDER: CARCINOMA, Dose [Carcinogen]: 0.05% IN DRINKING WATER FOR 4 WK (STUDY DURATION: 36 WK), Promoter: SODIUM L-ASCORBATE [134-03-2])","tumour outcome (control, treated, inhibition, significance) (Carcinogen: N-BUTYL-N-(4-HYDROXYBUTYL)NITROSAMINE [3817-11-6], Dose [Inhibitor]: 2 G/L IN DRINKING WATER FOR 32 WK BEGINNING 2 D POST LAST CARCINOGEN DOSE (STUDY DURATION: 36 WK), Route [Inhibitor]: ORAL, Species: RAT, Strain/Sex: F344/MALE, Target Tissue: Type of Lesion: URINARY BLADDER: PAPILLOMA, Dose [Carcinogen]: 0.05% IN DRINKING WATER FOR 4 WK (STUDY DURATION: 36 WK), Promoter: SODIUM L-ASCORBATE [134-03-2])","tumour outcome (control, treated, inhibition, significance) (Carcinogen: N-METHYL-N'-NITRO-N-NITROSOGUANIDINE, 70-25-7, Dose [Inhibitor]: 0, 2.5 G/L IN DRINKING WATER BEGINNING 1 WK POST CARCINOGEN TREATMENT AND CONTINUING FOR DURATION OF STUDY (STUDY DURATI, Route [Inhibitor]: ORAL, Species: RAT, Strain/Sex: WISTAR/MALE, Target Tissue: Type of Lesion: STOMACH: ADENOCARCINOMA, Dose [Carcinogen]: 50 UG/ML IN DRINKING WATER FOR 25 WK, Promoter: BOMBESIN, 31362-50-2)","tumour outcome (control, treated, inhibition, significance) (Carcinogen: N-METHYL-N'-NITRO-N-NITROSOGUANIDINE, 70-25-7, Dose [Inhibitor]: 0, 2.5 G/L IN DRINKING WATER FOR 26 WK BEGINNING 1 WK POST CARCINOGEN TREATMENT (STUDY DURATION: 52 WK), Route [Inhibitor]: ORAL, Species: RAT, Strain/Sex: WISTAR/MALE, Target Tissue: Type of Lesion: GLANDULAR STOMACH: ADENOCARCINOMA, Dose [Carcinogen]: 25 UG/ML IN DRINKING WATER FOR 25 WK, Promoter: SODIUM CHLORIDE, 7647-14-5)","tumour outcome (control, treated, inhibition, significance) (Carcinogen: N-METHYL-N'-NITRO-N-NITROSOGUANIDINE, 70-25-7, Dose [Inhibitor]: 0, 25 G/L IN DRINKING WATER FOR 26 WK BEGINNING 1/WK POST CARCINOGEN TREATMENT (STUDY DURATION: 52 WK), Route [Inhibitor]: ORAL, Species: RAT, Strain/Sex: WISTAR/MALE, Target Tissue: Type of Lesion: STOMACH: ADENOCARCINOMA, Dose [Carcinogen]: 25 UG/ML IN DRINKING WATER FOR 25 WK, Promoter: TYROSINE METHYL ESTER, 1080-06-4)","tumour outcome (control, treated, inhibition, significance) (Carcinogen: 7,12-DIMETHYLBENZ[A]ANTHRACENE, 57-97-6, Dose [Inhibitor]: 0, 17 NMOL 2/WK APPLIED 1 HR PRIOR TO EACH PROMOTER DOSE FOR 20 WK (STUDY DURATION: 21 WK), Route [Inhibitor]: DERMAL, Species: MOUSE, Target Tissue: Type of Lesion: SKIN: TUMOR, Dose [Carcinogen]: 390 NMOL ONCE, Promoter: 12-O-TETRADECANOYLPHORBOL-13-ACETATE, 16561-29-8)"
NCCCN,"20/20 (100%), 11/20 (55%), 45%, p<0.01","14/18 (78%), 6/18 (33%), 58%, p<0.02","5/17 (29%), 3/17 (18%), 39%, not significant","15/15 (100%), 18/18 (100%), 0%, not significant","15/15 (100%), 18/18 (100%), 0%, not significant","14/20 (70%), 6/20 (30%), 57%, p<0.05","14/19 (74%), 6/20 (30%), 59%, p<0.02","15/18 (83%), 8/18 (44%), 47%, p<0.05",–
Brc1c(Br)c(Br)c2c(c1Br)Oc1c(Br)c(Br)c(Br)c(Br)c1O2,–,–,–,–,–,–,–,–,"100%, 93%, 7%, not calculated"
